# Measured values taken from patent publication US8399674B2, “Quinolines” (Hoffman-La Roche Inc., priority 2007, dated 2013).
# Target: T1, recombinant human 5-HT5A receptor (Homo sapiens, UniProt P47898)
# T1 construct: expressed in transfected cells; host or cells: HEK-EBNA (Human Embryonic Kidney-EBNA) cells, transient transfection; membranes
# Assay: [3H]LSD radioligand binding assay, membranes of HEK-EBNA cells transiently expressing the receptor
# Details: [3H]LSD approx. 1 nM, 120 min room temperature, Ki from IC50 by Cheng-Prussoff equation, read-out: Ki (affinity towards the human 5-HT5A receptor)
# Method: A [^3H] LSD radioligand binding assay was used to determine the affinity of the compounds for the recombinant human 5-HT5A receptor, in membranes from transiently (cDNA) expressed 5-HT5A receptors in Human Embryonic Kidney-EBNA (HEK-EBNA) cells.
# Assay buffer consisted of Tris (50 mM) buffer containing 1 mM EGTA, 10 mM MgCl2 (pH 7.4) and 10 μM pargyline. The binding assay was carried out in 96-well-plates in the presence of [^3H]LSD (approximately 1 nM), approximately 2 μg/well of membrane protein, and 0.5 mg of Ysi-poly-1-lysine SPA beads in a final volume of 200 μl of buffer. Non-specific binding was defined using methiothepin 2 μM. Compounds were tested at 10 concentrations. All assays were conducted in duplicate and repeated at least two times. Assay plates were incubated for 120 min at room temperature before centrifugation. Bound ligand was determined using a Packard Topcount scintillation counter. IC50 values were calculated using a non-linear curve fitting program and Ki values calculated using the Cheng-Prussoff equation.
# T1 sequence (P47898 whole entry): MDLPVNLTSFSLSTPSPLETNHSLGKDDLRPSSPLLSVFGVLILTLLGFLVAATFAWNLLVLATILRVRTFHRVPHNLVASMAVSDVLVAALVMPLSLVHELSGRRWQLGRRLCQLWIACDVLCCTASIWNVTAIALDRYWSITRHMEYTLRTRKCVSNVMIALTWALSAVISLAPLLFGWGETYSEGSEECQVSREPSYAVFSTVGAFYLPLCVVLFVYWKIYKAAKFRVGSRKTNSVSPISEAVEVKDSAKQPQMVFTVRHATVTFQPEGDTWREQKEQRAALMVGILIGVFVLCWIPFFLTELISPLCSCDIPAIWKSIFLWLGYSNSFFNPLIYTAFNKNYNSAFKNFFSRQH
row,SMILES,Ki [nM]
1,"COc1ccccc1CNc1cc(-c2ccccc2C)c2cc(NCc3cccnc3)ccc2n1 [Example 32, N2-(2-Methoxy-benzyl)-N6-pyridin-3-ylmethyl-4-o-tolyl-quinoline-2,6-diamine]",12
2,"COc1ccccc1CNc1ccc2cc(NCc3ccccc3)ccc2n1 [Example 8, N6-Benzyl-N2-(2-methoxy-benzyl)-quinoline-2,6-diamine]",22
3,"COc1ccccc1CNc1cc(-c2cc(F)ccc2F)c2cc(NCc3cccnc3)ccc2n1 [Example 35, 4-(2,5-Difluoro-phenyl)-N2-(2-methoxy-benzyl)-N6-pyridin-3-ylmethyl-quinoline-2,6-diamine]",22
4,"COc1ccccc1CNc1ccc2cc(NCc3ccccc3OC(F)(F)F)ccc2n1 [Example 17, N2-(2-Methoxy-benzyl)-N6-(2-trifluoromethoxy-benzyl)-quinoline-2,6-diamine]",25
5,"COc1ccccc1CNc1ccc2cc(Nc3cccc(CCO)c3)ccc2n1 [Example 103, 2-{3-[2-(2-Methoxy-benzylamino)-quinolin-6-ylamino]-phenyl}-ethanol]",25
6,"Cc1ccc(CNc2ccc3cc(NCc4ccccc4)ccc3n2)o1 [Example 29, N6-Benzyl-N2-(5-methyl-furan-2-ylmethyl)-quinoline-2,6-diamine]",32
7,"COc1ccccc1CNc1cc(-c2ccccc2)c2cc(NCc3cccnc3)ccc2n1 [Example 13, N2-(2-Methoxy-benzyl)-4-phenyl-N6-pyridin-3-ylmethyl-quinoline-2,6-diamine]",11
8,"COc1cc(F)ccc1CNc1cc(-c2ccccc2)c2cc(NCc3cccnc3)ccc2n1 [Example 31, N-2-(4-Fluoro-2-methoxy-benzyl)-4-phenyl-N-6-pyridin-3-ylmethyl-quinoline-2,6-diamine]",17
9,"COc1ccccc1CNc1cc(N)c2cc(NCc3cccnc3)ccc2n1 [Example 51, N2-(2-Methoxy-benzyl)-N6-pyridin-3-ylmethyl-quinoline-2,4,6-triamine]",15
10,"COc1cc(F)ccc1CNc1cc(N)c2cc(NCc3ccccc3)ccc2n1 [Example 44, N6-Benzyl-N2-(4-fluoro-2-methoxy-benzyl)-quinoline-2,4,6-triamine]",40
11,"COc1cccc(CNc2ccc3nc(NCc4ccccc4OC)ccc3c2)c1 [Example 16, N6-(3-Methoxy-benzyl)-N2-(2-methoxy-benzyl)-quinoline-2,6-diamine]",17
12,"Cc1ccc(CNc2ccc3cc(CNc4cccnc4)ccc3n2)o1 [Example 49, (5-Methyl-furan-2-ylmethyl)-[6-(pyridin-3-ylaminomethyl)-quinolin-2-yl]-amine]",128
13,"COc1cccc(CNc2ccc3nc(NCc4ccccc4OC)cc(-c4ccccc4)c3c2)c1 [Example 19, N6-(3-Methoxy-benzyl)-N2-(2-methoxy-benzyl)-4-phenyl-quinoline-2,6-diamine]",22
14,"Cc1ccc(CNc2ccc3cc(NCc4cccnc4)ccc3n2)o1 [Example 25, N2-(5-Methyl-furan-2-ylmethyl)-N6-pyridin-3-ylmethyl-quinoline-2,6-diamine]",22
15,"COc1cccc(-c2cc(NCc3ccccc3OC)nc3ccc(NCc4cccnc4)cc23)c1 [Example 33, N-2-(2-Methoxy-benzyl)-4-(3-methoxy-phenyl)-N-6-pyridin-3-ylmethyl-quinoline-2,6-diamine]",50
16,"COc1cccc(CNc2ccc3nc(NCc4ccc(C)o4)ccc3c2)c1 [Example 28, N6-(3-Methoxy-benzyl)-N2-(5-methyl-furan-2-ylmethyl)-quinoline-2,6-diamine]",44
17,"COc1ccccc1CNc1cc(N)c2cc(NCc3ccccc3)ccc2n1 [Example 47, N6-Benzyl-N2-(2-methoxy-benzyl)-quinoline-2,4,6-triamine]",30

row,SMILES,Ki [nM]
1,"COc1ccccc1CNc1ccc2nc(NCCOc3ccccc3)ccc2c1 [Example 9, N6-(2-Methoxy-benzyl)-N2-(2-phenoxy-ethyl)-quinoline-2,6-diamine]",26
2,"COc1ccccc1CNc1ccc2cc(COc3ccccc3)ccc2n1 [Example 43, (2-Methoxy-benzyl)-(6-phenoxymethyl-quinolin-2-yl)-amine]",73
3,"Cc1ccc(CNc2cc(N)c3cc(NCc4cccnc4)ccc3n2)o1 [Example 54, N2-(5-Methyl-furan-2-ylmethyl)-N6-pyridin-3-ylmethyl-quinoline-2,4,6-triamine]",22
4,"COc1cccc(CNc2ccc3nc(NCCOc4ccccc4)ccc3c2)c1 [Example 10, N6-(3-Methoxy-benzyl)-N2-(2-phenoxy-ethyl)-quinoline-2,6-diamine]",42
5,"COCCNc1cc(NCc2ccc(F)cc2OC)nc2ccc(NCc3ccccc3)cc12 [Example 42, N6-Benzyl-N2-(4-fluoro-2-methoxy-benzyl)-N4-(2-methoxy-ethyl)-quinoline-2,4,6-triamine]",169
6,"COc1cccc(CNc2ccc3cc(NCc4cccnc4)ccc3n2)c1 [Example 57, N2-(3-Methoxy-benzyl)-N6-pyridin-3-ylmethyl-quinoline-2,6-diamine]",37
7,"COc1ccccc1CNc1ccc2cc(CCc3cccnc3)ccc2n1 [Example 18, (2-Methoxy-benzyl)-[6-(2-pyridin-3-yl-ethyl)-quinolin-2-yl]-amine]",87
8,"COc1cc(F)ccc1CNc1cc(-c2ccccc2C)c2cc(NCc3ccccc3)ccc2n1 [Example 38, N-6-2-Benzyl-N-2-(4-fluoro-2-methoxy-benzyl)-4-o-tolyl-quinoline-2,6-diamine]",41
9,"COc1ccc(NC(=O)Nc2ccc3nc(NCc4ccccc4OC)ccc3c2)cc1 [Example 79, 1-[2-(2-Methoxy-benzylamino)-quinolin-6-yl]-3-(4-methoxy-phenyl)-urea]",30
10,"COc1ccccc1CNc1ccc2cc(/C=C/c3cccnc3)ccc2n1 [Example 14, (2-Methoxy-benzyl)-[6-((E)-2-pyridin-3-yl-vinyl)-quinolin-2-yl]-amine]",60
11,"c1ccc(OCCNc2ccc3cc(NCc4ccncc4)ccc3n2)cc1 [Example 7, N2-(2-Phenoxy-ethyl)-N6-pyridin-4-ylmethyl-quinoline-2,6-diamine]",101
12,"COc1ccccc1CNc1ccc2nc(NCc3ccc(C)o3)ccc2c1 [Example 27, N6-(2-Methoxy-benzyl)-N2-(5-methyl-furan-2-ylmethyl)-quinoline-2,6-diamine]",30
13,"c1cncc(CNc2ccc3nc(NCc4cccc5c4OCO5)ccc3c2)c1 [Example 73, N2-Benzo[1,3]dioxol-4-ylmethyl-N6-pyridin-3-ylmethyl-quinoline-2,6-diamine]",27
14,"Cc1ccc(CNc2cc(N)c3cc(NCc4ccccc4)ccc3n2)o1 [Example 55, N6-Benzyl-N2-(5-methyl-furan-2-ylmethyl)-quinoline-2,4,6-triamine]",22
15,"COc1ccccc1CNc1ccc2cc(NCCCn3ccnc3)ccc2n1 [Example 23, N6-(3-Imidazol-1-yl-propyl)-N2-(2-methoxy-benzyl)-quinoline-2,6-diamine]",129
16,"COc1cc(F)ccc1CNc1cc(-c2ccccc2)c2cc(NCc3ccncc3)ccc2n1 [Example 37, N-2-(4-Fluoro-2-methoxy-benzyl)-4-phenyl-N-6-&-pyridin-4-ylmethyl-quinoline-2,6-diamine]",40
